Assay [1] deals with All-induced contractions of isolated rabbit aorta. Put plainly: Test B: antagonism of All-induced contractions of isolated rabbit aorta. It counts as cell-based. Conditions: 37°C. The method, then: This in vitro test involves the measurement of the antagonistic effects of the test compound against All-induced contractions of isolated rabbit aorta, maintained in a physiological salt solution at 37°C. In order to ensure that the effect of the compound is specific to antagonism of All, the effect of the test compound on noradrenaline-induced contractions may also be determined in the same preparation.

Assay [2] has as its target T1, All (angiotensin II) receptors (Cavia porcellus, UniProt Q9WV26).
T1 construct: from tissue; host or cells: guinea pig adrenal gland, cell surface membrane fraction
T1 sequence (Q9WV26 1-359): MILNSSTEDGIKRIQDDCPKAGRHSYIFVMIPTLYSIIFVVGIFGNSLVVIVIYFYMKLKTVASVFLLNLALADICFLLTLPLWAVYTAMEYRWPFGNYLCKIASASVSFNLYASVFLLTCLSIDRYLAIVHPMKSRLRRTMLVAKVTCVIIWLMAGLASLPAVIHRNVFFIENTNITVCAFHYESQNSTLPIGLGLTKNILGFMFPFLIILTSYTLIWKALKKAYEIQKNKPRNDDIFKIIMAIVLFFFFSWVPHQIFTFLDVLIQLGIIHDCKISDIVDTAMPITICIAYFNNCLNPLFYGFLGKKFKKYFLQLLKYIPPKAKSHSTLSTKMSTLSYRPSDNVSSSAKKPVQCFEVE
Put plainly: Test A: displacement of radiolabelled All binding from guinea pig adrenal gland membrane fraction. Conditions: guinea pig adrenal gland membranes; read-out: IC50 (concentration for 50% displacement of radiolabelled All binding). The protocol:
This in vitro procedure involves the incubation of the test compound initially at a concentration of 100 micromolar (or less) in a buffered mixture containing fixed concentrations of radiolabelled All and a cell surface membrane fraction prepared from a suitable angiotensin target tissue. In this test, the source of cell surface membranes is the guinea pig adrenal gland which is well known to respond to All. Interaction of the radiolabelled All with its receptors (assessed as radiolabel bound to the particulate membrane fraction following removal of unbound radiolabel by a rapid filtration procedure such as is standard in such studies) is antagonized by compounds which also bind to the membrane receptor sites and the degree of antagonism (observed in the test as displacement of membrane-bound radioactivity) is determined readily by comparing the receptor-bound radioactivity in the presence of the test compound at the specified test concentration with a control value determined in the absence of the test compound. Using this procedure compounds showing at least 50% displacement of radiolabelled All binding at a concentration of 10^-4 M are retested at lower concentrations to determine their potency. […]

The subject of assay [3] is angiotensin II-induced pressor responses. Put plainly: Test C: antagonism of angiotensin II-induced pressor responses in terminally-anaesthetised or conscious rats. It counts as in vivo. The conditions noted are these: Rattus norvegicus. The protocol: This in vivo test involves using terminally-anaesthetised or conscious rats in which an arterial catheter has been implanted under anaesthesia for the measurement of changes in blood pressure. The All antagonistic effects of the test compound following oral or parenteral administration, are assessed against angiotensin II-induced pressor responses. To ensure that the effect is specific the effect of the test compound on vasopressin-induced pressor responses may also be determined in the same preparation.

The pA2 is a measure of antagonist potency on a negative log scale. For orientation: inhibition means the drop in the measured response relative to a control, in per cent. Read a high inhibition as a response far below the control. A word on the ED50: it is the dose that gives a 50% effect, or the effect in half of the subjects.

`CCCCc1nc2cccnc2n1Cc1ccc(-c2ccccc2-c2nnn[nH]2)cc1.Cl` [Example 3, 2-butyl-3-[(2'-(1H-tetrazol-5-yl)biphenyl-4-yl)methyl]-3H-imidazo[4,5-b]pyridine hydrochloride]: the pA2 in assay [1] was determined as 9.2. In assay [2], the IC50 stood at 14.9 nM. For the same molecule, at 20 mg/kg the inhibition in assay [3] (1 h, after one hour at a dose of 20mg/kg (oral administration)) was 54%. The ED50 in assay [3] (parenteral administration) was determined as 1.07 mg/kg.

The record behind these values is patent EP0399731B2, “Azaindenes” (AstraZeneca AB, priority 1989, dated 1990).
